Test results from ChEMBL document CHEMBL2062494, “Synthesis and biochemical evaluation of thiochromanone thiosemicarbazone analogues as inhibitors of cathepsin L” (ACS Med Chem Lett, 2012).

What was measured:
[1] = target: Procathepsin L (Homo sapiens, UniProt P07711); experiment: Inhibition of human liver cathepsin L using Z-R-R-AMC as substrate preincubated with compound for 5 mins measured after 20 mins by fluorescence analysis
[2] = target: Cathepsin B (Homo sapiens, UniProt P07858); experiment: Inhibition of human liver cathepsin B using Z-R-R-AMC as substrate preincubated with compound for 5 mins measured after 20 mins by fluorescence analysis

Chain of Procathepsin L (P07711 whole entry): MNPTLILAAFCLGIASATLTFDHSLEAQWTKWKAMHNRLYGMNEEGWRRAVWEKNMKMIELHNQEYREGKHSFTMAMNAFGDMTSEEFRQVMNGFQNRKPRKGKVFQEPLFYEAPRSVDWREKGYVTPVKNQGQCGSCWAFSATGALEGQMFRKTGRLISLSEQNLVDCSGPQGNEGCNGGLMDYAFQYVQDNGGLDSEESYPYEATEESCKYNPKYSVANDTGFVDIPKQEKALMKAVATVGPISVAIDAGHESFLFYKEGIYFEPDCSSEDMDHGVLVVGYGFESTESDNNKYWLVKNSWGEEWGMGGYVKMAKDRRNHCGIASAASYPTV

Structure (SMILES)	IC50 [1]	IC50 [2]
NC(=S)N/N=C1\CCS(=O)(=O)c2ccc([N+](=O)[O-])cc21	0.112 µM	> 10 µM
CC(C)c1ccc2c(c1)/C(=N/NC(N)=S)CCS2	> 10 µM	> 10 µM
NC(=S)N/N=C1\CCS(=O)(=O)c2ccc(OC(F)(F)F)cc21	3.96 µM	> 10 µM
NC(=S)N/N=C1\CCSc2cc(F)c(F)cc21	0.046 µM	> 10 µM
NC(=S)N/N=C1\CCSc2c(F)cc(Br)cc21	0.434 µM	> 10 µM
Cc1ccc2c(c1)/C(=N/NC(N)=S)CCS2(=O)=O	> 10 µM	> 10 µM
NC(=S)N/N=C1\CCS(=O)(=O)c2c(Br)cc(F)cc21	> 10 µM	> 10 µM
NC(=S)N/N=C1\CCSc2ccc(Br)cc21	0.152 µM	> 10 µM
NC(=S)N/N=C1\CCS(=O)(=O)c2ccc(Br)cc21	0.574 µM	> 10 µM
NC(=S)N/N=C1\CCS(=O)(=O)c2ccc(F)cc21	> 10 µM	> 10 µM
NC(=S)N/N=C1\CCS(=O)(=O)c2ccc(Cl)cc21	> 10 µM	> 10 µM
NC(=S)N/N=C1\CCS(=O)(=O)c2cc(F)c(F)cc21	3.65 µM	> 10 µM
COc1ccc2c(c1)/C(=N/NC(N)=S)CCS2	> 10 µM	> 10 µM
CCc1ccc2c(c1)/C(=N/NC(N)=S)CCS2(=O)=O	6.52 µM	> 10 µM
NC(=S)N/N=C1\CCS(=O)(=O)c2c(F)cc(Br)cc21	1.12 µM	> 10 µM
NC(=S)N/N=C1\CCSc2ccc(O)cc21	> 10 µM	> 10 µM
NC(=S)N/N=C1\CCSc2c(Br)cc(F)cc21	> 10 µM	> 10 µM
NC(=S)N/N=C1\CCSc2ccc3ccccc3c21	> 10 µM	> 10 µM

Structure (SMILES)	IC50 [1]	IC50 [2]
NC(=S)NN=C1CCS(=O)(=O)c2ccc(O)cc21 (mixture of isomers)	> 10 µM	> 10 µM
NC(=S)N/N=C1\CCSc2ccc(C(F)(F)F)cc21	0.284 µM	> 10 µM
NC(=S)NN=C1CCSc2ccc(N)cc21 (mixture of isomers)	> 10 µM	> 10 µM
CCc1ccc2c(c1)/C(=N/NC(N)=S)CCS2	2.72 µM	> 10 µM
CSc1ccc2c(c1)/C(=N/NC(N)=S)CCS2	> 10 µM	> 10 µM
CC(C)c1ccc2c(c1)/C(=N/NC(N)=S)CCS2(=O)=O	> 10 µM	> 10 µM
COc1ccc2c(c1)/C(=N/NC(N)=S)CCS2(=O)=O	> 10 µM	> 10 µM
Cc1ccc2c(c1)/C(=N/NC(N)=S)CCS2	0.214 µM	> 10 µM
NC(=S)N/N=C1\CCSc2ccc(F)cc21	0.741 µM	> 10 µM
NC(=S)N/N=C1\CCSc2c(F)cc(F)cc21	1.5 µM	> 10 µM
CC(=O)Nc1ccc2c(c1)/C(=N/NC(N)=S)CCS2(=O)=O	> 10 µM	> 10 µM
NC(=S)N/N=C1\CCSc2ccc(Cl)cc21	0.228 µM	> 10 µM
NC(=S)N/N=C1\CCSc2c(OC(F)(F)F)cccc21	> 10 µM	> 10 µM
NC(=S)N/N=C1\CCS(=O)(=O)c2c(F)cc(F)cc21	> 10 µM	> 10 µM
CC(=O)Nc1ccc2c(c1)/C(=N/NC(N)=S)CCS2	> 10 µM	> 10 µM
NC(=S)N/N=C1\CCSc2ccc(OC(F)(F)F)cc21	0.256 µM	> 10 µM
NC(=S)N/N=C1\CCSc2ccc([N+](=O)[O-])cc21	0.068 µM	> 10 µM
NC(=S)N/N=C1\CCS(=O)(=O)c2ccc(C(F)(F)F)cc21	0.26 µM	> 10 µM
